The test system of this assay is LTD4. The assay is described as follows: LTD4 antagonism in guinea-pig trachea (in vitro test). The class given is cell-based. The note with it: Cavia porcellus, 0.5 h, LTD4 2×10^-8 g/ml, isolated guinea-pig trachea; for inhibition at 1 µg/mL: 10^-6 g/ml test compound; for inhibition at 0.1 µg/mL: 10^-7 g/ml test compound, read-out: LTD4 Antagonism (%) (in parenthesis). As to the method: SRS-A is a mixture of leukotriene C4 (hereinafter referred to as LTC4), leukotriene D4 (hereinafter referred to as LTD4), leukotriene E4 (hereinafter referred to as LTE4) and the like. Accordingly, antagonistic activities against SRS-A can be evaluated by one of the following two test methods:
LTD4 antagonism in guinea-pig trachea
Antagonism for LTD4 was determined in isolated male guinea-pig (300-400 g) trachea prepared as spiral strip. Tracheal preparations were suspended under 1 g tension in 10 ml organ baths containing 5 μM of indomethacin and they were incubated for 1 hr prior to use. Contractile responses to LTD4 (2×10^-8 g/ml) were obtained after the maximal response to histamine (10^- 4 M). Test compounds dissolved in 100% dimethyl sulfoxide were added to the organ baths (final concentration of 10^-6 g/ml or 10^-7 g/ml) 30 min prior to LTD4 addition, and then contractile responses to LTD4 were compared with those of control which was obtained from a paired trachea in the absence of test compounds. LTD4 -induced contractions were expressed as a percentage of the maximal response to histamine. The antagonism was determined as follows:
Antagonism (%)=(1.0 - % contraction in test/% contraction in control)×100
In parenthesis in Table 2, LTD4 antagonisms by test compounds at a concentration of 10^-7 g/ml are shown.

SMILES strings stand for the structures.

The molecule `CCCOc1cc(CN(C)c2cn[nH]c(=O)c2Cl)ccc1OC` [Compound No. 5] registered an inhibition at 1 µg/mL of 54%.
On the same count and under the same terms, the result for `CCCCOc1cc(CN(C)c2cn[nH]c(=O)c2Cl)ccc1OC` [Compound No. 7] reads 50%; that for `CCCOc1cc(CNc2c([N+](=O)[O-])n[nH]c(=O)c2Cl)ccc1OC` [Compound No. 22, 4-chloro-5-(3-n-propoxy-4-methoxybenzylamino)-6-nitro-3(2H)pyridazinone], 59%.
The molecule `CCCOc1cc(CNc2c(N)n[nH]c(=O)c2Cl)ccc1OC` [Compound No. 23, 4-chloro-5-(3-n-propoxy-4-methoxybenzylamino)-6-amino-3(2H)pyridazinone] registered an inhibition at 1 µg/mL of 51%.
The same measure, in the same setting: then `CCCCOc1cc(CNc2c(N)n[nH]c(=O)c2Br)ccc1OC` [Compound No. 30, 4-bromo-5-(3-n-butoxy-4-methoxybenzylamino)-6-amino-3(2H)pyridazinone], with 38%.
On the same count and under the same terms, then `CCCCCCOc1cc(CNc2c([N+](=O)[O-])n[nH]c(=O)c2Br)ccc1OC` [Compound No. 33], with 93%; and `CCOc1cc(CNc2c(OCC)nn(CC)c(=O)c2Br)ccc1OC` [Compound No. 48], with 99%; and `CCCOc1cc(CNc2c(OCC)nn(CC)c(=O)c2Cl)ccc1OC` [Compound No. 50, 2-ethyl-4-chloro-5-(3-n-propoxy-4-methoxybenzylamino)-6-ethoxy-3(2H)pyridazinone], with 95%.
Still for that read-out and setting: the result for `CCOc1cc(CNc2c(OC(C)C)nn(CC)c(=O)c2Cl)ccc1OC` [Compound No. 51] reads 94%; that for `CCOc1cc(CNc2c(OC(C)C)nn(CC)c(=O)c2Br)ccc1OC` [Compound No. 52], 100%.
`CCCOc1cc(CNc2c(OC(C)C)nn(CC)c(=O)c2Cl)ccc1OC` [Compound No. 53] came in with an inhibition at 1 µg/mL of 100%.
Take `C=CCOc1nn(CC)c(=O)c(Br)c1NCc1ccc(OC)c(OCC)c1` [Compound No. 56]: the inhibition at 1 µg/mL came to 100% and the inhibition at 0.1 µg/mL is 51%.
As to `CCCOc1cc(CNc2c(OC(C)C)n[nH]c(=O)c2Cl)ccc1OC` [Compound No. 67], the inhibition at 1 µg/mL is 100% and the inhibition at 0.1 µg/mL is 82%.
With `CCCOc1cc(CNc2c(Cl)n[nH]c(=O)c2Cl)ccc1OC` [Compound No. 71, 4,6-dichloro-5-(3-n-propoxy-4-methoxybenzylamino)-3(2H)pyridazinone], the inhibition at 1 µg/mL amounted to 66%.
Take `CCC(C)Oc1n[nH]c(=O)c(Cl)c1NCc1ccc(OC)c(OC)c1` (centres unmarked) [Compound No. 89]: the inhibition at 1 µg/mL was 96% and the inhibition at 0.1 µg/mL is 55%.
Taken in the same sequence, the figures for `CCOc1cc(CNc2c(OC(C)c3ccccc3)n[nH]c(=O)c2Cl)ccc1OC` (centres unmarked) [Compound No. 91] were 100% and 76%.
The molecule `CCCSc1n[nH]c(=O)c(Cl)c1NCc1ccc(OC)c(OC)c1` [Compound No. 92, 4-chloro-5-(3,4-dimethoxybenzylamino)-6-n-propylmercapto-3(2H)pyridazinone] came in with an inhibition at 1 µg/mL of 63%.
As for `CCCc1c(OCC(O)COc2ccc3c(=O)cc(C(=O)O)oc3c2CCC)ccc(C(C)=O)c1O` (centres unmarked) [FPL-55712, reference compound], the inhibition at 1 µg/mL was 94% and the inhibition at 0.1 µg/mL amounted to 48%.
The molecule `COc1ccc(CN(C)c2cn[nH]c(=O)c2Br)cc1OCCc1ccccc1` [compound 10] displayed an inhibition at 1 µg/mL of 66%.
In turn, `CCCOc1cc(CNc2c([N+](=O)[O-])n[nH]c(=O)c2Br)ccc1OC` [compound 27] had an inhibition at 1 µg/mL of 72%.
Still for that read-out and setting: the result for `COc1ccc(CNc2c([N+](=O)[O-])n[nH]c(=O)c2Cl)cc1OCCc1ccccc1` [compound 36] reads 70%; that for `CCOc1cc(CNc2c(OC)nn(CC)c(=O)c2Cl)ccc1OC` [compound 45], 50%; that for `CCOc1cc(CNc2c(OCC)nn(CC)c(=O)c2Cl)ccc1OC` [compound 46], 73%.
Same read-out and setting: then `CCOc1cc(CNc2c(OC)nn(CC)c(=O)c2Br)ccc1OC` [compound 47], with 79%.
The same measure, in the same setting: the result for `C=CCOc1nn(CC)c(=O)c(Cl)c1NCc1ccc(OC)c(OCCC)c1` [compound 54] reads 95%; that for `C=CCOc1nn(CC)c(=O)c(Cl)c1NCc1ccc(OC)c(OCC)c1` [compound 55], 81%.
For `CCCOc1cc(CNc2c(OCCC)nn(CC)c(=O)c2Cl)ccc1OC` [compound 57], the inhibition at 1 µg/mL was determined as 100% and the inhibition at 0.1 µg/mL amounted to 37%.
Taken in the same sequence, the figures for `C#CCOc1nn(CC)c(=O)c(Br)c1NCc1ccc(OC)c(OCC)c1` [compound 58] were 100% and 40%.
Taken in the same sequence, the figures for `CC=CCOc1nn(CC)c(=O)c(Br)c1NCc1ccc(OC)c(OCC)c1` [compound 60] were 100% and 38%.
Regarding `C=C(C)COc1nn(CC)c(=O)c(Br)c1NCc1ccc(OC)c(OCC)c1` [compound 61], the inhibition at 1 µg/mL stood at 96%.
The same measure, in the same setting: then `COc1ccc(CNc2c(OC(C)C)n[nH]c(=O)c2Cl)cc1OC` [compound 63], with 92%; and `CCOc1cc(CNc2c(OCC)n[nH]c(=O)c2Cl)ccc1OC` [compound 64], with 90%; and `CCOc1cc(CNc2c(OC(C)C)n[nH]c(=O)c2Cl)ccc1OC` [compound 65], with 96%.
As for `CCCOc1cc(CNc2c(OCC)n[nH]c(=O)c2Cl)ccc1OC` [compound 66], the inhibition at 1 µg/mL was found to be 100% and the inhibition at 0.1 µg/mL is 48%.
With `CCOc1cc(CNc2c(Cl)n[nH]c(=O)c2Cl)ccc1OC` [compound 70], the inhibition at 1 µg/mL amounted to 66%.
In turn, `CCCCCCOc1cc(CNc2c(OC(C)C)n[nH]c(=O)c2Cl)ccc1OC` [compound 72] returned an inhibition at 1 µg/mL of 75%.
Still for that read-out and setting: the result for `CCOc1cc(CN(C)c2c(OC)nn(CC)c(=O)c2Br)ccc1OC` [compound 73] reads 100%; that for `CCOc1cc(CN(C)c2c(OCC)nn(CC)c(=O)c2Br)ccc1OC` [compound 74], 100%.
Same read-out and setting: then `CCCOc1cc(CNc2c(OCc3ccccc3)nn(CC)c(=O)c2Cl)ccc1OC` [compound 75], with 77%; and `CCCOc1cc(CNc2c(OCC)nn(C(C)C)c(=O)c2Cl)ccc1OC` [compound 77], with 50%.
Still for that read-out and setting: then `CCCOc1cc(CNc2c(OC(C)C)nn(C(C)C)c(=O)c2Cl)ccc1OC` [compound 78], with 56%; and `C=CCOc1nn(C(C)C)c(=O)c(Cl)c1NCc1ccc(OC)c(OCCC)c1` [compound 79], with 79%.
For the molecule `CCOc1cc(CNc2c(OC)n[nH]c(=O)c2Cl)ccc1OC` [compound 80], the inhibition at 1 µg/mL amounted to 100%.
The same measure, in the same setting: then `CCOc1n[nH]c(=O)c(Cl)c1NCc1ccc(OC)c(OC)c1` [compound 84], with 59%; and `COc1ccc(CNc2c(OCc3ccccc3)n[nH]c(=O)c2Cl)cc1OC` [compound 85], with 85%.
As to `CCOc1cc(CNc2c(OCc3ccccc3)n[nH]c(=O)c2Cl)ccc1OC` [compound 86], the inhibition at 1 µg/mL came to 100% and the inhibition at 0.1 µg/mL stood at 48%.
Taken in the same sequence, the figures for `COc1ccc(CNc2c(OC(C)c3ccccc3)n[nH]c(=O)c2Cl)cc1OC` (centres unmarked) [compound 90] were 96% and 70%.
`COc1ccc(CNc2c(SCC(C)C)n[nH]c(=O)c2Cl)cc1OC` [compound 94] registered an inhibition at 1 µg/mL of 68%.
